Values of other authors, collected in patent US20160175335A1, “ANTIFUNGAL COMBINATION THERAPY OF TAVABOROLE AND EFINACONAZOLE” (priority 2014, published 2016).

System: dermatophytes, yeasts and non-dermatophyte molds
Settings: against dermatophytes

## C=C1CCN([C@H](C)[C@](O)(Cn2cncn2)c2ccc(F)cc2F)CC1 [Efinaconazole, ((2R,3R)-2-(2,4-difluorophenyl)-3-(4-methylenepiperidin-1yl)-1-(1H-1,2,4-triazol-1-yl)butan-2-ol)]
  effectiveness in vitro compared with other antifungal agents: more effective in vitro than terbinafine, itraconazole, ciclopirox and amorolfine
